This experiment concerns BDF1 mice, M5076 sarcoma s.c., survival/tumor T/C. In words: NCI In Vivo Anticancer Drug Screen. Data for tumor model Sarcoma M5076 (subcutaneous) in B6D2F1 (BDF1) mice. As for the experimental part: The antitumor activity of compounds was measured in mice bearing transplantable tumors. Survival or tumor size were measured and the results are expressed as the measurement made in the treated group (T) divided by the measurement made in the vehicle treated control group (C). The tumor model used in this assay is Sarcoma M5076 (subcutaneous) in B6D2F1 (BDF1) mice

Setting [1] is: endpoint: median survival time, dose: 50.0 mg/kg/injection, schedule: Q01DX009 (ip), vehicle: saline with Tween-80, higher = longer survival.
The mark [2] stands for this setting: endpoint: median survival time, dose: 100.0 mg/kg/injection, schedule: Q01DX009 (ip), vehicle: saline with Tween-80, higher = longer survival.
Setting [3] is: endpoint: median survival time, dose: 200.0 mg/kg/injection, schedule: Q01DX009 (ip), vehicle: saline with Tween-80, higher = longer survival.
[4] abbreviates: endpoint: median tumor weight (est.), dose: 50.0 mg/kg/injection, schedule: Q01DX009 (ip), vehicle: saline with Tween-80, higher = larger tumour.
[5] abbreviates: endpoint: median tumor weight (est.), dose: 100.0 mg/kg/injection, schedule: Q01DX009 (ip), vehicle: saline with Tween-80, higher = larger tumour.
The mark [6] stands for this setting: endpoint: median tumor weight (est.), dose: 200.0 mg/kg/injection, schedule: Q01DX009 (ip), vehicle: saline with Tween-80, higher = larger tumour.

From PubChem BioAssay AID288 (DTP/NCI, 2004) come the findings set out here.

Several values for one entry are separate records, joined by “and”; a condition that tells them apart may be missing. Identical values can stand only once. Records with an inconclusive call do not appear.

Consider `CCC/C=C/C=C/C(=O)OC1/C(=C/C(=O)OC)CC2CC(C(C)O)OC(=O)CC(O)CC3CC(OC(C)=O)C(C)(C)C(O)(CC4C/C(=C/C(=O)OC)CC(/C=C/C(C)(C)C1(O)O2)O4)O3` (centres undefined), for which the T/C reads like this: (endpoint: median survival time, dose: 5.0 micrograms/kg/injection, schedule: Q01DX009 (ip), vehicle: saline + Tween-80 + alcohol, higher = longer survival) 100 % of control; (endpoint: median survival time, dose: 5.0 micrograms/kg/injection, schedule: Q01DX009 (ip), vehicle: saline + alcohol, higher = longer survival) 106 % of control; (endpoint: median survival time, dose: 10.0 micrograms/kg/injection, schedule: Q01DX009 (ip), vehicle: saline + Tween-80 + alcohol, higher = longer survival) 97 % of control; (endpoint: median survival time, dose: 10.0 micrograms/kg/injection, schedule: Q01DX009 (ip), vehicle: saline + alcohol, higher = longer survival) 96 % of control; (endpoint: median survival time, dose: 20.0 micrograms/kg/injection, schedule: Q01DX009 (ip), vehicle: saline + Tween-80 + alcohol, higher = longer survival) 111 % of control; (endpoint: median survival time, dose: 20.0 micrograms/kg/injection, schedule: Q01DX009 (ip), vehicle: saline + alcohol, higher = longer survival) 111 % of control. In addition, the T/C (endpoint: median survival time, dose: 80.0 micrograms/kg/injection, schedule: Q01DX009 (ip), vehicle: saline + Tween-80 + alcohol, higher = longer survival) was 103 % of control; the T/C (endpoint: median survival time, dose: 80.0 micrograms/kg/injection, schedule: Q01DX009 (ip), vehicle: saline + alcohol, higher = longer survival) is 103 % of control; the T/C (endpoint: median tumor weight (est.), dose: 5.0 micrograms/kg/injection, schedule: Q01DX009 (ip), vehicle: saline + Tween-80 + alcohol, higher = larger tumour) was 102 % of control; the T/C (endpoint: median tumor weight (est.), dose: 5.0 micrograms/kg/injection, schedule: Q01DX009 (ip), vehicle: saline + alcohol, higher = larger tumour) is 198 % of control; the T/C (endpoint: median tumor weight (est.), dose: 10.0 micrograms/kg/injection, schedule: Q01DX009 (ip), vehicle: saline + Tween-80 + alcohol, higher = larger tumour) was 89 % of control; the T/C (endpoint: median tumor weight (est.), dose: 10.0 micrograms/kg/injection, schedule: Q01DX009 (ip), vehicle: saline + alcohol, higher = larger tumour) was 107 % of control. The T/C is 83 % of control (endpoint: median tumor weight (est.), dose: 20.0 micrograms/kg/injection, schedule: Q01DX009 (ip), vehicle: saline + Tween-80 + alcohol, higher = larger tumour); 10 % of control (endpoint: median tumor weight (est.), dose: 20.0 micrograms/kg/injection, schedule: Q01DX009 (ip), vehicle: saline + alcohol, higher = larger tumour); 11 % of control (endpoint: median tumor weight (est.), dose: 40.0 micrograms/kg/injection, schedule: Q01DX009 (ip), vehicle: saline + Tween-80 + alcohol, higher = larger tumour).

Consider `CS(=O)(=O)c1ncc(Br)cn1`, for which the T/C reads like this: (endpoint: median survival time, dose: 25.0 mg/kg/injection, schedule: Q04DX003 (ip), vehicle: saline with Tween-80, higher = longer survival) 100 % of control; (endpoint: median survival time, dose: 50.0 mg/kg/injection, schedule: Q04DX003 (ip), vehicle: saline with Tween-80, higher = longer survival) 84 % of control; (endpoint: median survival time, dose: 100.0 mg/kg/injection, schedule: Q04DX003 (ip), vehicle: saline with Tween-80, higher = longer survival) 99 % of control; (endpoint: median survival time, dose: 200.0 mg/kg/injection, schedule: Q04DX003 (ip), vehicle: saline with Tween-80, higher = longer survival) 91 % of control.

On to `S=c1nc[nH]c2nc[nH]c12`, for which the T/C reads like this: (endpoint: median survival time, dose: 12.5 mg/kg/injection, schedule: Q04DX006 (ip), vehicle: saline with Tween-80, higher = longer survival) 99 % of control; (endpoint: median survival time, dose: 25.0 mg/kg/injection, schedule: Q04DX006 (ip), vehicle: saline with Tween-80, higher = longer survival) 111 % of control; (endpoint: median survival time, dose: 50.0 mg/kg/injection, schedule: Q02DX033 (ip), vehicle: saline with Tween-80, higher = longer survival) 107 % of control; (endpoint: median survival time, dose: 50.0 mg/kg/injection, schedule: Q04DX006 (ip), vehicle: saline with Tween-80, higher = longer survival) 105 % of control; (endpoint: median survival time, dose: 100.0 mg/kg/injection, schedule: Q04DX006 (ip), vehicle: saline with Tween-80, higher = longer survival) 111 % of control.

Take `O=C1CC(=O)N(C2CCCCC2)C(=O)N1c1ccccc1S(=O)(=O)Oc1ccccc1`: the T/C under setting [1] was 94 % of control; the T/C under setting [2] is 90 % of control; the T/C under setting [3] was 100 % of control; the T/C under setting [4] was 111 % of control; the T/C under setting [5] was 56 % of control; the T/C under setting [6] is 96 % of control.

For `COC1=C(C)C(=O)C2=C(C1=O)C(CO)N1C(C#N)C3CC4C(C1C2N1CCOC41)N3C` (centres undefined), the T/C is 100 % of control (endpoint: median survival time, dose: 0.06 mg/kg/injection, schedule: Q01DX009 (ip), vehicle: saline + alcohol, higher = longer survival); 96 % of control (endpoint: median survival time, dose: 0.13 mg/kg/injection, schedule: Q01DX009 (ip), vehicle: saline + alcohol, higher = longer survival); 91 % of control (endpoint: median survival time, dose: 0.25 mg/kg/injection, schedule: Q01DX009 (ip), vehicle: saline + alcohol, higher = longer survival); 106 % of control (endpoint: median survival time, dose: 0.5 mg/kg/injection, schedule: Q01DX009 (ip), vehicle: saline + alcohol, higher = longer survival); 103 % of control (endpoint: median tumor weight (est.), dose: 0.06 mg/kg/injection, schedule: Q01DX009 (ip), vehicle: saline + alcohol, higher = larger tumour); 153 % of control (endpoint: median tumor weight (est.), dose: 0.13 mg/kg/injection, schedule: Q01DX009 (ip), vehicle: saline + alcohol, higher = larger tumour). The T/C is 95 % of control (endpoint: median tumor weight (est.), dose: 0.25 mg/kg/injection, schedule: Q01DX009 (ip), vehicle: saline + alcohol, higher = larger tumour) and 80 % of control (endpoint: median tumor weight (est.), dose: 0.5 mg/kg/injection, schedule: Q01DX009 (ip), vehicle: saline + alcohol, higher = larger tumour).

Take `c1cnc2c(OCCOCCOCCOCCOc3cccc4cccnc34)cccc2c1`: the T/C is 98 % of control under setting [1]; 122 % of control under setting [2]; 121 % of control under setting [3]; 73 % of control under setting [4]; 58 % of control under setting [5]; 49 % of control under setting [6].

`COC1C(O)C(C)OC(OC2C(Oc3cccc4c(O)c5c(=O)oc6ccc(C)c7c(=O)oc(c34)c5c67)OC(C)C(O)C2O)C1O` (centres undefined): the T/C (endpoint: mean tumor weight, dose: 25.0 mg/kg/injection, schedule: Q02DX011 (ip), vehicle: Klucel (hydroxypropylcellulose) (HPC), higher = larger tumour) was 83 % of control; the T/C (endpoint: mean tumor weight, dose: 50.0 mg/kg/injection, schedule: Q02DX011 (ip), vehicle: Klucel (hydroxypropylcellulose) (HPC), higher = larger tumour) is 96 % of control; the T/C (endpoint: mean tumor weight, dose: 100.0 mg/kg/injection, schedule: Q02DX011 (ip), vehicle: Klucel (hydroxypropylcellulose) (HPC), higher = larger tumour) is 57 % of control; the T/C (endpoint: median tumor weight (est.), dose: 50.0 mg/kg/injection, schedule: Q02DX011 (ip), vehicle: Klucel (hydroxypropylcellulose) (HPC), higher = larger tumour) was 82 % of control; the T/C (endpoint: median tumor weight (est.), dose: 100.0 mg/kg/injection, schedule: Q02DX011 (ip), vehicle: Klucel (hydroxypropylcellulose) (HPC), higher = larger tumour) is 48 % of control.

With `Cc1ncc([N+](=O)[O-])n1CCO`, the T/C is 116 % of control (endpoint: median survival time, dose: 750.0 mg/kg/injection, schedule: Q01DX001 (ip), vehicle: saline, higher = longer survival); 105 % of control and 85 % of control (endpoint: median survival time, dose: 1000.0 mg/kg/injection, schedule: Q01DX001 (ip), vehicle: saline with Tween-80, higher = longer survival); 89 % of control and 90 % of control (endpoint: median survival time, dose: 1500.0 mg/kg/injection, schedule: Q01DX001 (ip), vehicle: saline, higher = longer survival); 91 % of control (endpoint: median survival time, dose: 2000.0 mg/kg/injection, schedule: Q01DX001 (ip), vehicle: saline with Tween-80, higher = longer survival); 87 % of control (2×) and 89 % of control (endpoint: median survival time, dose: 2000.0 mg/kg/injection, schedule: Q01DX001 (ip), vehicle: saline, higher = longer survival); 78 % of control (endpoint: median survival time, dose: 2500.0 mg/kg/injection, schedule: Q01DX001 (ip), vehicle: saline with Tween-80, higher = longer survival).

Turning to `CSc1ccc(NC(=O)NNP(=S)(Oc2ccc(C(C)(C)C)cc2)Oc2ccc(C(C)(C)C)cc2)cc1`, the T/C reads like this: under setting [1], 102 % of control; under setting [2], 107 % of control; under setting [3], 87 % of control; under setting [4], 92 % of control; under setting [5], 83 % of control; under setting [6], 92 % of control.

In the case of `Nc1ccc(N2N=C(N3CCCC3)CC2=O)cc1`, the T/C under setting [1] was 100 % of control; the T/C under setting [2] was 99 % of control; the T/C under setting [3] was 94 % of control; the T/C under setting [4] was 112 % of control; the T/C under setting [6] is 80 % of control.

Take `CC(C)CC(NC(=O)C(N)C(C)C)C(=O)NC(CCCCN)C(=O)NC(C(=O)O)C1CC(Cl)=NO1` (centres undefined): the T/C was 103 % of control and 106 % of control (endpoint: median survival time, dose: 1.6 mg/kg/injection, schedule: Q01DX010 (ip), vehicle: saline, higher = longer survival); 173 % of control (endpoint: median survival time, dose: 25.6 mg/kg/injection, schedule: Q01DX010 (ip), vehicle: saline, higher = longer survival); 166 % of control (endpoint: median survival time, dose: 51.2 mg/kg/injection, schedule: Q01DX010 (ip), vehicle: saline, higher = longer survival).
